From US20250144094A1 (Erasca, Inc., priority 2021, published 2025) come the findings set out here.

In general, IC50 refers to the concentration that gives 50% inhibition.

This test concerns the target Recombinant human ULK1 (1-649) (Homo sapiens (Human), UniProt O75385). Description: ULK1 ADP Glo kinase activity assay, new method (ULKtide peptide substrate). Conditions: 25° C., 40 minutes, read-out: ULK1 biochemical IC50. Put shortly: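 Kinase activity was read as ADP production (ADP-Glo, luminescence 30 min after detection reagent) following a 40-min, 25 °C reaction of Sf9-expressed GST-ULK1 (1-649) with ULKtide substrate and ATP. Compounds ran as 12-point series starting at 10 μM; four-parameter curve fitting versus DMSO wells gave IC50.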
Background: ADP-Glo first removes unused ATP, then detects ADP through luciferase.

Sequence of Recombinant human ULK1 (1-649) (O75385 1-649): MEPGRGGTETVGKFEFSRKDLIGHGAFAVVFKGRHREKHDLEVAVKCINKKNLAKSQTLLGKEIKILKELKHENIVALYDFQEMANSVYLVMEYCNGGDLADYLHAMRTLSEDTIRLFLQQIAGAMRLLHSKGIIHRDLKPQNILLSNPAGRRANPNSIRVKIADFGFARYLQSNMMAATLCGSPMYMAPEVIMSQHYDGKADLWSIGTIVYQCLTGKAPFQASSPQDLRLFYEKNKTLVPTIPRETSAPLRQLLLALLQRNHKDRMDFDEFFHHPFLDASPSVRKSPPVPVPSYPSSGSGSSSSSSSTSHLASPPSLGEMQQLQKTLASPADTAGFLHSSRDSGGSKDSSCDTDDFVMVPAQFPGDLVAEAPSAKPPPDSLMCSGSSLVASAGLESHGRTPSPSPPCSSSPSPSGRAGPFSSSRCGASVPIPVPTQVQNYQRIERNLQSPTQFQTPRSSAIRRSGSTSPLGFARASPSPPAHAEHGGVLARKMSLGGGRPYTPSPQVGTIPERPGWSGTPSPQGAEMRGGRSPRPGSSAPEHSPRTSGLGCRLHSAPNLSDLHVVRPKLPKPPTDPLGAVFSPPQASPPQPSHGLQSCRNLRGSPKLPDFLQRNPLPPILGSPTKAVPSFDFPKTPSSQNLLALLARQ

For `C[C@H]1CN(c2ccc(Nc3ncc(C(F)(F)F)c(-c4cc5c(s4)C(=O)N(C4COC4)CCS5(=O)=O)n3)c(C3CC3)c2)CCN1` [Example 341, (S)-7-(2-((2-Cyclopropyl-4-(3-methylpiperazin-1-yl)phenyl)amino)-5-(trifluoromethyl)pyrimidin-4-yl)-4-(oxetan-3-yl)-3,4-dihydrothieno[2,3-f][1,4]thiazepin-5(2H)-one 1,1-dioxide], the 50% inhibitory concentration (IC50) was not above 5 nM.

Consider `O=C1c2sc(-c3nc(Nc4ccc(N5C[C@H]6C[C@@H]5CN6)cc4C4CC4)ncc3C(F)(F)F)cc2S(=O)(=O)CCN1C1CC1` [Example 329, 7-(2-((4-((1R,4R)-2,5-diazabicyclo[2.2.1]heptan-2-yl)-2-cyclopropylphenyl)amino)-5-(trifluoromethyl)pyrimidin-4-yl)-4-cyclopropyl-3,4-dihydrothieno[2,3-f][1,4]thiazepin-5(2H)-one 1,1-dioxide], for which the IC50 was not above 5 nM.

As to `Cc1cnc(Nc2cc3c(cc2C2CC2)CNCC3)nc1-c1cc2c(s1)C(=O)N(C1CC1)CCS2(=O)=O` [Example 260, 4-cyclopropyl-7-(2-((7-cyclopropyl-1,2,3,4-tetrahydroisoquinolin-6-yl)amino)-5-methylpyrimidin-4-yl)-3,4-dihydrothieno[2,3-f][1,4]thiazepin-5(2H)-one 1,1-dioxide], the 50% inhibitory concentration (IC50) was not above 5 nM.

In the case of `CCc1cc(N2C[C@H](C)N(C)[C@@H](C)C2)ccc1Nc1ncc(C(F)(F)F)c(-c2cc3c(s2)C(=O)N(C2CC2)CCS3(=O)=O)n1` [Example 363, 4-cyclopropyl-7-(2-((2-ethyl-4-((3S,5S)-3,4,5-trimethylpiperazin-1-yl)phenyl)amino)-5-(trifluoromethyl)pyrimidin-4-yl)-3,4-dihydrothieno[2,3-f][1,4]thiazepin-5(2H)-one 1,1-dioxide], the concentration for half-maximal inhibition (IC50) was not above 5 nM.

`O=C1c2sc(-c3nc(Nc4cc5c(cc4C4CC4)CN(CCF)CC5)ncc3C(F)(F)F)cc2S(=O)(=O)CCN1C1CC1` [Example 249, 4-cyclopropyl-7-(2-((7-cyclopropyl-2-(2-fluoroethyl)-1,2,3,4-tetrahydroisoquinolin-6-yl)amino)-5-(trifluoromethyl)pyrimidin-4-yl)-3,4-dihydrothieno[2,3-f][1,4]thiazepin-5(2H)-one 1,1-dioxide]: the IC50 is not above 5 nM.

`CCN1CCc2cc(Nc3ncc(C(F)(F)F)c(-c4cc5c(s4)C(=O)N(C4CC4)CCS5(=O)=O)n3)c(C(C)C)cc2C1` [Example 267, 4-cyclopropyl-7-(2-((2-ethyl-7-isopropyl-1,2,3,4-tetrahydroisoquinolin-6-yl)amino)-5-(trifluoromethyl)pyrimidin-4-yl)-3,4-dihydrothieno[2,3-f][1,4]thiazepin-5(2H)-one 1,1-dioxide]: the IC50 was not above 5 nM.

Take `CN1CCS(=O)(=O)c2cc(-c3nc(Nc4cc5c(cc4Cl)CN(CCF)CC5)ncc3C(F)(F)F)sc2C1=O` [Example 237, 7-(2-((7-chloro-2-(2-fluoroethyl)-1,2,3,4-tetrahydroisoquinolin-6-yl)amino)-5-(trifluoromethyl)pyrimidin-4-yl)-4-methyl-3,4-dihydrothieno[2,3-f][1,4]thiazepin-5(2H)-one 1,1-dioxide]: the IC50 was not above 5 nM.

Take `N#CCN1CCc2cc(Nc3ncc(C(F)(F)F)c(-c4cc5c(s4)C(=O)N(C4COC4)CCS5(=O)=O)n3)c(C3CC3)cc2C1` [Example 285, 2-(7-cyclopropyl-6-((4-(4-(oxetan-3-yl)-1,1-dioxido-5-oxo-2,3,4,5-tetrahydrothieno[2,3-f][1,4]thiazepin-7-yl)-5-(trifluoromethyl)pyrimidin-2-yl)amino)-3,4-dihydroisoquinolin-2(1H)-yl)acetonitrile]: the IC50 was 5 to 10 nM.

In the case of `CCN1CCc2cc(Nc3ncc(C(F)(F)F)c(-c4cc5c(s4)C(=O)N(C4CCC4)CCS5(=O)=O)n3)c(Cl)cc2C1` [Example 203, 7-(2-((7-chloro-2-ethyl-1,2,3,4-tetrahydroisoquinolin-6-yl)amino)-5-(trifluoromethyl)pyrimidin-4-yl)-4-cyclobutyl-3,4-dihydrothieno[2,3-f][1,4]thiazepin-5(2H)-one 1,1-dioxide], the IC50 was not above 5 nM.

In the case of `Cc1cc2c(cc1Nc1ncc(C(F)(F)F)c(-c3cc4c(s3)C(=O)N(C)CCS4(=O)=O)n1)CCNC2` [Example 184, 4-methyl-7-(2-((7-methyl-1,2,3,4-tetrahydroisoquinolin-6-yl)amino)-5-(trifluoromethyl)pyrimidin-4-yl)-3,4-dihydrothieno[2,3-f][1,4]thiazepin-5(2H)-one 1,1-dioxide], the IC50 is not above 5 nM.

Regarding `C[C@H]1CN(c2ccc(Nc3ncc(C(F)(F)F)c(-c4cc5c(s4)C(=O)N(C4CC4)CCS5(=O)=O)n3)c(C3CC3)c2)CCN1` [Example 331, (S)-4-cyclopropyl-7-(2-((2-cyclopropyl-4-(3-methylpiperazin-1-yl)phenyl)amino)-5-(trifluoromethyl)pyrimidin-4-yl)-3,4-dihydrothieno[2,3-f][1,4]thiazepin-5(2H)-one 1,1-dioxide], the half-maximal inhibitory concentration (IC50) was not above 5 nM.

On to `CCc1cc(N2CCNCC2)ccc1Nc1ncc(C(F)(F)F)c(-c2cc3c(s2)C(=O)N(C2COC2)CCS3(=O)=O)n1` [Example 364, 7-(2-((2-ethyl-4-(piperazin-1-yl)phenyl)amino)-5-(trifluoromethyl)pyrimidin-4-yl)-4-(oxetan-3-yl)-3,4-dihydrothieno[2,3-f][1,4]thiazepin-5(2H)-one 1,1-dioxide], for which the IC50 was not above 5 nM.

`CN1CCS(=O)(=O)c2cc(-c3nc(Nc4ccc(N5CCNCC5)cc4C4CC4)ncc3C(F)(F)F)sc2C1=O` [Example 238, 7-(2-((2-cyclopropyl-4-(piperazin-1-yl)phenyl)amino)-5-(trifluoromethyl)pyrimidin-4-yl)-4-methyl-3,4-dihydrothieno[2,3-f][1,4]thiazepin-5(2H)-one 1,1-dioxide]: the IC50 fell in the range of 5 to 10 nM.

On to `CN1CCS(=O)(=O)c2cc(-c3nc(Nc4ccc(N5CCN(CC6CC6)CC5)cc4Cl)ncc3C(F)(F)F)sc2C1=O` [Example 206, 7-(2-((2-chloro-4-(4-(cyclopropylmethyl)piperazin-1-yl)phenyl)amino)-5-(trifluoromethyl)pyrimidin-4-yl)-4-methyl-3,4-dihydrothieno[2,3-f][1,4]thiazepin-5(2H)-one 1,1-dioxide], for which the IC50 is not above 5 nM.

On to `CCc1cc(N2CCN(CC(N)=O)CC2)ccc1Nc1ncc(C(F)(F)F)c(-c2cc3c(s2)C(=O)N(C2CC2)CCS3(=O)=O)n1` [Example 280, 2-(4-(4-((4-(4-cyclopropyl-1,1-dioxido-5-oxo-2,3,4,5-tetrahydrothieno[2,3-f][1,4]thiazepin-7-yl)-5-(trifluoromethyl)pyrimidin-2-yl)amino)-3-ethylphenyl)piperazin-1-yl)acetamide], for which the IC50 is not above 5 nM.

Take `O=C1c2sc(-c3nc(Nc4cc5c(cc4C4CC4)CNCC5)ncc3C(F)(F)F)cc2S(=O)(=O)CCN1C1CCC1` [Example 218, 4-cyclobutyl-7-(2-((7-cyclopropyl-1,2,3,4-tetrahydroisoquinolin-6-yl)amino)-5-(trifluoromethyl)pyrimidin-4-yl)-3,4-dihydrothieno[2,3-f][1,4]thiazepin-5(2H)-one 1,1-dioxide]: the IC50 was not above 5 nM.
